# Measurements reported in patent US9266904B2, “6-bridged heteroaryldihydropyrimidines for the treatment and prophylaxis of hepatitis B virus infection” (priority 2013, dated 2016).
# Experiments:
# [1] = Cytotoxicity (CCK-8 cell viability) and selectivity index; type: cell-based, human; details: human, HepDE19 cells; cytotoxicity, concentration resulting in death of 50% of host cells
# In short: (§1)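 HepDE19 cells (5×10^3/well) were treated with compounds as for the EC50 runs and, after 5 days, given CCK-8 for 2 h at 37° C. Absorbance was read at OD450 and OD630, and CC50 was taken as the concentration killing 50% of host cells.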
# HepDE19 cells = experiment: as above; type: cell-based, human; details: CC50 value/EC50 value
# In short: as §1
# CYP3A4 = details: human, 24 h
# Procedure: Human cryopreserved hepatocytes (Life Technologies, Carlsbad, USA) were thawed and cultured in collagen I coated 96-well plates with a density of 52,000 cells/well. After attachment, medium was changed and cells were pre-cultured overnight in hepatocyte maintenance medium (HMM; Lonza, Switzerland).
# Test compounds were dosed to the cells next morning at an indicated concentration (up to 10 μM) in HMM culture media containing gentamycin and a constant 0.1% DMSO. Similarly, dilutions of the positive inducer compounds omeprazole (prototypical inducer of human CYP1A2; final concentrations: 1 and 10 μM), phenobarbital (prototypical inducer of human CYP2B6; final concentrations: 100 and 1000 μM) and rifampicin (prototypical inducer of human CYP3A4; final concentrations: 1 and 10 μM) were prepared from 1000 fold DMSO stock solutions in HMM containing gentamycin. Medium change was then performed and cells were exposed for 24 hours to test compounds, positive inducer compounds, or vehicle (0.1% DMSO), respectively.
# At the end of the compound exposure period, medium was removed and cells lysed using 100 μL/well MagNA Pure LC RNA isolation tissue lysis buffer (Roche Diagnostics AG, Rotkreuz, Switzerland). Plates were then sealed and frozen at −80° C. until further workup.
# mRNA isolation was performed using the MagNA Pure 96 system (Roche Diagnostics AG, Rotkreuz, Switzerland) and the respective cellular RNA large volume kit (Roche Diagnostics AG, Rotkreuz, Switzerland) from thawed samples diluted 1:1 with PBS. The volume of the cell lysis and an elution volume of 100 μL were used. 20 μL of the resulting mRNA suspension was then used for reverse transcription using 20 μL of the transcript or first stand cDNA synthesis kit (Roche prime Supply, Mannheim, Germany). The resulting cDNA was diluted with 40 μL of H2O before using for qRT-PCR. qRT-PCR was performed by using the forward and the reverse primer, the corresponding UPL (all from Microsynth, Balgach, Switzerland) and the Taqman Fast advanced master mix (Applied Biosystems), on an ABI 7900 machine (Applied Biosystems).
# qRT-PCR Ct-values for the respective P450s were put into relation to the Ct-value of RN18S1 (microsynth, Balgach, Switzerland) of the same sample. Doing so, a respective Δct-value was calculated. Using the average of all Δct-values for the vehicle control samples, a ΔΔct-value was calculated for each sample (ΔΔct-value(sample)=Δct-value(sample)−average of Δct-value of all vehicle controls). The fold induction of the respective sample was calculated as 2^(−ΔΔct). The individual fold induction values were then averaged per treatment condition (usually n=3 biological replicates).
# Relative induction values to the respective positive inducer compound condition (10 μM omeprazole for CYP1A2; 1000 μM Phenobarbital for CYP2B6; 10 μM rifampicin for CYP3A4) were then calculated from the fold induction values as follows: Relative induction(%)=100×(T−V)/(P−V)
# T: fold induction of test compound condition
# P: fold induction of positive inducer compound
# V: fold induction of vehicle controls
# [2] = test system: HBV replication in HepG2.2.15 cells; experiment: Anti-HBV activity in vitro in HepG2.2.15 cells (extracellular HBV DNA by qPCR); type: cell-based; details: Hepatitis B virus, HepG2.2.15, Anti-HBV activity in HepG2.2.15 cells; read-out: EC50
# In short: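 EC50 is derived from qPCR of extracellular viral DNA in culture supernatant after 5-day compound exposure. Cells (HepG2.2.15, stably carrying the HBV genome) were plated and incubated overnight at 37 °C before half-log dilution series were added at 0.5% final DMSO.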
# [3] = Human microsomal clearance assay; type: in vitro ADME; details: human, 1 μM, pH 7.4
# In short: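 Liver microsomes (0.5 mg/mL protein) were incubated with 1 μM compound at 37 °C, pH 7.4 phosphate, with an NADPH-regenerating system. Samples at 0-30 min were quenched and measured by LC-MS/MS for parent loss. No-NADPH controls were included.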
# [4] = Lyophilisation solubility assay (Lysa); type: physicochemical; details: pH 6.5, aqueous buffer, thermodynamic from solid
# In short: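 DMSO was evaporated from 10 mM stocks, and residues were taken up in 0.05 M phosphate buffer pH 6.5, stirred 1 h, shaken 2 h and left overnight. Filtrates were quantified by UV or HPLC-UV against a four-point calibration, in duplicate. Values are in μg/ml, with a lower-bound value when >80% dissolved.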
# HBV = HBV infected transgenic mouse or humanized mouse models; cited from earlier work
SMILES,CC50 at 5 days [1] [µM],Selectivity index (CC50/EC50) (HepDE19 cells),% of Positive control (10 μM Rifampicin) (CYP3A4) [%],EC50 [2] [µM],CLh [3] [mL/min/kg],solubility thermodynamic [4] [µg/mL],in vivo efficacy (HBV DNA reduction) (HBV)
"CCOC(=O)C1=C(CN2C3COCC2CC(CC(=O)O)C3)NC(c2nccs2)=N[C@H]1c1ccc(F)cc1Cl (stereo partly drawn) [Example 26, (R)-6-(7-Carboxymethyl-3-oxa-9-aza-bicyclo[3.3.1]non-9-ylmethyl)-4-(2-chloro-4-fluoro-phenyl)-2-thiazol-2-yl-1,4-dihydro-pyrimidine-5-carboxylic acid ethyl ester]",68,5231,36,0.013,3.5,470,
COC(=O)C1=C(C)NC(c2ncc(F)cc2F)=N[C@H]1c1ccc(F)cc1Cl [Bay 41-4109],,,,,,,demonstrated in vivo efficacy with HBV DNA reduction
"COC(=O)C1=C(CN2C3COCC2CC(CC(=O)O)C3)NC(c2nccs2)=N[C@H]1c1ccc(F)c(F)c1Cl (stereo partly drawn) [Example 135, Endo-2-[9-[[(4R)-4-(2-chloro-3,4-difluoro-phenyl)-5-methoxycarbonyl-2-thiazol-2-yl-1,4-dihydropyrimidin-6-yl]methyl]-3-oxa-9-azabicyclo[3.3.1]nonan-7-yl]acetic acid]",> 100,>15385,27,0.0065,4.2,533,
"CCOC(=O)C1=C(CN2[C@@H]3COC[C@H]2C[C@H](CC(=O)O)C3)NC(c2nccs2)=N[C@H]1c1ccc(F)c(F)c1Br [Example 80, Exo-2-[(1S,5R)-9-[[(4R)-4-(2-bromo-3,4-difluoro-phenyl)-5-ethoxycarbonyl-2-thiazol-2-yl-1,4-dihydropyrimidin-6-yl]methyl]-3-oxa-9-azabicyclo[3.3.1]nonan-7-yl]acetic acid]",38,22394,35,0.0017,4.6,221,
"COC(=O)C1=C(CN2C3COCC2C(F)(F)[C@H](CC(=O)O)C3)NC(c2nccs2)=N[C@H]1c1ccc(F)cc1Cl (stereo partly drawn) [Example 126, 2-[(7S)-9-[[(4R)-4-(2-chloro-4-fluoro-phenyl)-5-methoxycarbonyl-2-thiazol-2-yl-1,4-dihydropyrimidin-6-yl]methyl]-6,6-difluoro-3-oxa-9-azabicyclo[3.3.1]nonan-7-yl]acetic acid]",> 100,>9709,17,0.0103,0,> 605,
"COC(=O)C1=C(CN2[C@@H]3COC[C@H]2C[C@H](CC(=O)O)C3)NC(c2nccs2)=N[C@H]1c1ccc(F)c(F)c1Cl [Example 73, Exo-2-[(1S,5R)-9-[[(4R)-4-(2-chloro-3,4-difluoro-phenyl)-5-methoxycarbonyl-2-thiazol-2-yl-1,4-dihydropyrimidin-6-yl]methyl]-3-oxa-9-azabicyclo[3.3.1]nonan-7-yl]acetic acid]",72,24083,21,0.003,3.6,> 654,
"COC(=O)C1=C(CN2C3COCC2CC(CC(=O)O)C3)NC(c2nccs2)=N[C@H]1c1ccc(F)cc1Cl (stereo partly drawn) [Example 24, (R)-6-(7-Carboxymethyl-3-oxa-9-aza-bicyclo[3.3.1]non-9-ylmethyl)-4-(2-chloro-4-fluoro-phenyl)-2-thiazol-2-yl-1,4-dihydro-pyrimidine-5-carboxylic acid methyl ester]",> 100,>7692,29,0.013,2.6,> 621,
"COC(=O)C1=C(CN2[C@@H]3C[C@H](CC(=O)O)C[C@H]2C(F)(F)C3)NC(c2nccs2)=N[C@H]1c1cccc(F)c1Cl [Example 88, 2-[(1R,3S,5S)-8-[[(4R)-4-(2-chloro-3-fluoro-phenyl)-5-methoxycarbonyl-2-thiazol-2-yl-1,4-dihydropyrimidin-6-yl]methyl]-6,6-difluoro-8-azabicyclo[3.2.1]octan-3-yl]acetic acid]",52,39662,39,0.0013,0.2,120,
